Results from patent publication US10877036B2, “Biosensor based on Gβγ-interacting proteins to monitor G-protein activation” (priority 2014, dated 2020).
Where two headings read alike, the source gives them in different places.

What was measured:
Assay type in all cases: cell-based
TPαR [1] = target: T1, TPαR (Homo sapiens, UniProt P21731); assay: Polycistronic vector biosensor (GRK2-GFP, Rluc-Gγ5, Gβ1) co-transfected with TPαR and Gα11; conditions: FIG. 11C
T1 construct: host or cells: HEK293
T1 sequence (P21731 1-343): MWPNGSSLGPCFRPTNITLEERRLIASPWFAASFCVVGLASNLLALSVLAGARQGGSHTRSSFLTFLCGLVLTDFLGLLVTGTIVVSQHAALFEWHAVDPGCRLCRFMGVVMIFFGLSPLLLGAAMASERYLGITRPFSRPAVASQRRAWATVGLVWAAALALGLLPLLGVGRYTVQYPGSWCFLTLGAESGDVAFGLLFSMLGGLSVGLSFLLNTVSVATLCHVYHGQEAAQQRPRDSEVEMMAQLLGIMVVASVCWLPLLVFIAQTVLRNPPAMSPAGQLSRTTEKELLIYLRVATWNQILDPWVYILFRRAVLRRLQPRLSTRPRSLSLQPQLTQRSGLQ
From the text: Expression vectors: Biosensor constructs. Rluc-Gγ5 and GFP-Gγ: Plasmid encoding the fusion proteins Rluc-Gy1 to Gγ13 and GFP1O-Gγ5 were was obtained by PCR amplification of the Gγ coding sequences which were then fused in frame at its N-terminus to the humanized Renilla luciferase II (hRlucII) sequence (a variant of the hRluc previously reported (Leduc, Breton et al. 2009), SEQ ID NO:39) into pcDNA3.1 vector (linker sequence: GSAGT, SEQ ID NO: 33), or to the GFP10 (a variant form of the green fluorescent protein (GFP) previously reported (Mercier, Salahpour et al. 2002, SEQ ID NO:38). GRK2-GFP and GRK3-GFP: GRK2-GFP, GRK3-GFP, GRK2 Cterm (SEQ ID NO:50)-GFP, GRK3 Cterm (SEQ ID NO:51)-GFP were generated by PCR amplification of GRK2 and GRK3, which were then fused at their C-terminus to the GFP10 into pcDNA3.1 Zeo(+) vector, generating a linker of 11 amino acid residues between the GRK and the GFP10 protein (linker sequence: GSAGTGKLPAT, SEQ ID NO: 34). GFP-GRK2 and GFP-GRK3: […], GFP-GRK2 Cterm (SEQ ID NO:50), GFP-GRK3 Cterm (SEQ ID NO:51) were generated by PCR amplification of GRK2 and GRK3, which were then fused at their N-terminus to the GFP10 (SEQ ID NO:38) into pcDNA3.1 Zeo (+) vector, generating a linker of 7 amino acid residues between the GRK and the GFP10 protein (linker sequence: GSAGTGG, SEQ ID NO:52). […]

[2] = target: T2, thromboxane A2 receptor (TPαR) (Homo sapiens, UniProt P21731); assay: βγIP-based BRET biosensor (GRK2-GFP/Rluc-Gγ5/Gβ1 plus indicated Gα), agonist activation of TPαR in HEK293 cells; conditions: read-out: potency of G-protein activation (dose-response curve)
T2 construct: host or cells: HEK293
T2 sequence (P21731 1-343): T1 sequence (P21731 1-343)
Description: Cell culture and transfections. Human embryonic kidney 293 (HEK293) cells were maintained in Dulbecco's Modified Eagle's Medium (DMEM) supplemented with 10% fetal bovine serum, 100 unit/ml penicillin/streptomycin at 37° C. in a humidified atmosphere with 5% CO2. […]
BRET assays in living cells. […] BRET values were then collected using a Mithras™ LB940 Multimode Microplate Reader or a TRISTAR® LB942 Multimode Microplate Reader, equipped with the following filters: 400 nm±70 nm (energy donor) and 515 nm±20 nm (energy acceptor). BRET values were determined by calculating the ratio of the light emitted by GFP (515 nm) over the light emitted by the Rluc (400 nm). To determine the % of activation (Stim as % of basal), BRET values obtained for the agonist treated cells where expressed as a percentage of the BRET values obtained with the corresponding cells treated with vehicle.
Kinetics experiments. BRET assays were performed as described previously, except that BRET readings were collected at regular intervals, 5 min after coelenterazine addition, while ligands and vehicle were injected to the cells after 30 sec of BRET measurements.

TPαR [3] = target: T1, TPαR; assay: Rluc protein complementation assay (GRK2-Rluc F1/Rluc F2-Gγ5/Gβ1/Gα11), TPαR in HEK293 cells; conditions: Rluc-PCA, FIG. 9B, read-out: EC50 of G11 protein activation (luminescence)
Description: Cell culture and transfections. Human embryonic kidney 293 (HEK293) cells were maintained in Dulbecco's Modified Eagle's Medium (DMEM) supplemented with 10% fetal bovine serum, 100 unit/ml penicillin/streptomycin at 37° C. in a humidified atmosphere with 5% CO2. Two days before the experiments, HEK293 cells were transfected with the indicated plasmids using poly-ethylenimine 25-kDa linear (PEI) as a transfecting agent (at a ratio of 3 to 1, PEI/DNA) (Hamdan, Rochdi et al. 2007), and then directly seeded in 96-well plates pre-treated with poly-L-ornithine hydrobromide or Poly-D-Lysine, at a density of 35,000 cells per well (for BRET and PCA assays in living cells), or 6-well plates at a density of 1,000,000 cells per well (for BRET assays on membrane preparations).
Protein complementation assays using RlucII fragments. Cells were washed twice with PBS, followed by Tyrode buffer addition. The cells were then pre-treated with the Rluc substrate, coelenterazine 400a, at a final concentration of 2.5 μM for 30 min at 37° C. The different ligands or vehicle were added for an additional 10 min. Luminescence values were then collected using a Mithras™ LB940 Multimode Microplate Reader, without any filters.

CCCCC[C@H](O)/C=C/[C@@H]1[C@@H](C/C=C\CCCC(=O)O)[C@H]2CO[C@@H]1C2 [U-46619]
EC50 (TPαR [1]): 4.3 nM | EC50 ([2]; G-protein printed as Gβ, FIG. 3C): 0.5 nM | EC50 ([2]; Gα15/16, FIG. 3C): 6.6 nM | EC50 (TPαR [3]): 8.4 nM
